The supplement of paper PMC10307832

Experiments:
Assay in all cases: relative viability (nuclei count vs DMSO), 5 days (fraction); higher = more cells survive
SW 1573 = test system: SW 1573
Summary of the method: (§1)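 Values are medians from duplicate plates. Each reflects relative viability, defined as the nuclei count of treated wells over that of vehicle wells. Lung cancer cell lines in 1536-well plates were pin-tool dosed one day after seeding with one drug alone or with a fixed anchor-drug dose plus five library-drug doses (not always all listed) in √10 steps, then fixed, stained and imaged at 4× after 5 days.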

LU99A = test system: LU99A
Summary of the method: as §1

RERF-LC-KJ = test system: RERF-LC-KJ
Summary of the method: as §1

HCC-78 = test system: HCC-78
Summary of the method: as §1

SW 900 = test system: SW 900
Summary of the method: as §1

NCI-H2342 = test system: NCI-H2342
Summary of the method: as §1

EPLC-272H = test system: EPLC-272H
Summary of the method: as §1

NCI-H1666 = test system: NCI-H1666
Summary of the method: as §1

HCC-827 = test system: HCC-827
Summary of the method: as §1

NCI-H23 = test system: NCI-H23
Summary of the method: as §1

EMC-BAC-2 = test system: EMC-BAC-2
Summary of the method: as §1

NCI-H1563 = test system: NCI-H1563
Summary of the method: as §1

LXF-289 = test system: LXF-289
Summary of the method: as §1

ChaGo-K-1 = test system: ChaGo-K-1
Summary of the method: as §1

LCLC-103H = test system: LCLC-103H
Summary of the method: as §1

PC-14 = test system: PC-14
Summary of the method: as §1

NCI-H1975 = test system: NCI-H1975
Summary of the method: as §1

LK-2 = test system: LK-2
Summary of the method: as §1

SK-LU-1 = test system: SK-LU-1
Summary of the method: as §1

EKVX = test system: EKVX
Summary of the method: as §1

NCI-H322M = test system: NCI-H322M
Summary of the method: as §1

NCI-H2126 = test system: NCI-H2126
Summary of the method: as §1

NCI-H2405 = test system: NCI-H2405
Summary of the method: as §1

O=c1cc(-c2cccc3c2Sc2ccccc2S3)oc(N2CCOCC2)c1 + N=C(N)NC(=N)NCCc1ccccc1 [Phenformin] (partner 250 µM)
relative viability (SW 1573; first compound 0.08 µM): 0.38 | relative viability (SW 1573; first compound 0.253 µM): 0.369 | relative viability (SW 1573; first compound 0.8 µM): 0.339 | relative viability (SW 1573; first compound 2.53 µM): 0.347 | relative viability (SW 1573; first compound 8 µM): 0.364 | relative viability (LU99A; first compound 0.08 µM): 0.872 | relative viability (LU99A; first compound 0.253 µM): 1.08 | relative viability (LU99A; first compound 0.8 µM): 1.03 | relative viability (LU99A; first compound 2.53 µM): 0.896 | relative viability (LU99A; first compound 8 µM): 1 | relative viability (RERF-LC-KJ; first compound 0.08 µM): 0.4 | relative viability (RERF-LC-KJ; first compound 0.253 µM): 0.426 | relative viability (RERF-LC-KJ; first compound 0.8 µM): 0.465 | relative viability (RERF-LC-KJ; first compound 2.53 µM): 0.444 | relative viability (RERF-LC-KJ; first compound 8 µM): 0.406 | relative viability (HCC-78; first compound 0.08 µM): 0.62 | relative viability (HCC-78; first compound 0.253 µM): 0.769 | relative viability (HCC-78; first compound 0.8 µM): 0.638 | relative viability (HCC-78; first compound 2.53 µM): 0.555 | relative viability (HCC-78; first compound 8 µM): 0.667 | relative viability (SW 900; first compound 0.08 µM): 0.645 | relative viability (SW 900; first compound 0.253 µM): 0.627 | relative viability (SW 900; first compound 0.8 µM): 0.441 | relative viability (SW 900; first compound 2.53 µM): 0.567 | relative viability (SW 900; first compound 8 µM): 0.597 | relative viability (NCI-H2342; first compound 0.08 µM): 0.526 | relative viability (NCI-H2342; first compound 0.253 µM): 0.62 | relative viability (NCI-H2342; first compound 0.8 µM): 0.542 | relative viability (NCI-H2342; first compound 2.53 µM): 0.557 | relative viability (NCI-H2342; first compound 8 µM): 0.608 | relative viability (EPLC-272H; first compound 0.08 µM): 0.247 | relative viability (EPLC-272H; first compound 0.253 µM): 0.333 | relative viability (EPLC-272H; first compound 0.8 µM): 0.318 | relative viability (EPLC-272H; first compound 2.53 µM): 0.254 | relative viability (EPLC-272H; first compound 8 µM): 0.255 | relative viability (NCI-H1666; first compound 0.08 µM): 0.601 | relative viability (NCI-H1666; first compound 0.253 µM): 0.644 | relative viability (NCI-H1666; first compound 0.8 µM): 0.578 | relative viability (NCI-H1666; first compound 2.53 µM): 0.572 | relative viability (NCI-H1666; first compound 8 µM): 0.585 | relative viability (HCC-827; first compound 0.08 µM): 0.396 | relative viability (HCC-827; first compound 0.253 µM): 0.452 | relative viability (HCC-827; first compound 0.8 µM): 0.402 | relative viability (HCC-827; first compound 2.53 µM): 0.306 | relative viability (HCC-827; first compound 8 µM): 0.408 | relative viability (NCI-H23; first compound 0.08 µM): 0.811 | relative viability (NCI-H23; first compound 0.253 µM): 0.96 | relative viability (NCI-H23; first compound 0.8 µM): 0.901 | relative viability (NCI-H23; first compound 2.53 µM): 0.714 | relative viability (NCI-H23; first compound 8 µM): 0.959 | relative viability (EMC-BAC-2; first compound 0.08 µM): 0.502 | relative viability (EMC-BAC-2; first compound 0.253 µM): 0.54 | relative viability (EMC-BAC-2; first compound 0.8 µM): 0.563 | relative viability (EMC-BAC-2; first compound 2.53 µM): 0.489 | relative viability (EMC-BAC-2; first compound 8 µM): 0.519 | relative viability (NCI-H1563; first compound 0.08 µM): 0.626 | relative viability (NCI-H1563; first compound 0.253 µM): 0.689 | relative viability (NCI-H1563; first compound 0.8 µM): 0.617 | relative viability (NCI-H1563; first compound 2.53 µM): 0.633 | relative viability (NCI-H1563; first compound 8 µM): 0.611 | relative viability (LXF-289; first compound 0.08 µM): 0.531 | relative viability (LXF-289; first compound 0.253 µM): 0.526 | relative viability (LXF-289; first compound 0.8 µM): 0.556 | relative viability (LXF-289; first compound 2.53 µM): 0.431 | relative viability (LXF-289; first compound 8 µM): 0.558 | relative viability (ChaGo-K-1; first compound 0.08 µM): 0.463 | relative viability (ChaGo-K-1; first compound 0.253 µM): 0.53 | relative viability (ChaGo-K-1; first compound 0.8 µM): 0.56 | relative viability (ChaGo-K-1; first compound 2.53 µM): 0.344 | relative viability (ChaGo-K-1; first compound 8 µM): 0.509 | relative viability (LCLC-103H; first compound 0.08 µM): 0.31 | relative viability (LCLC-103H; first compound 0.253 µM): 0.374 | relative viability (LCLC-103H; first compound 0.8 µM): 0.361 | relative viability (LCLC-103H; first compound 2.53 µM): 0.336 | relative viability (LCLC-103H; first compound 8 µM): 0.296 | relative viability (PC-14; first compound 0.08 µM): 0.553 | relative viability (PC-14; first compound 0.253 µM): 0.479 | relative viability (PC-14; first compound 0.8 µM): 0.54 | relative viability (PC-14; first compound 8 µM): 0.746 | relative viability (NCI-H1975; first compound 0.08 µM): 0.42 | relative viability (NCI-H1975; first compound 0.253 µM): 0.488 | relative viability (NCI-H1975; first compound 0.8 µM): 0.418 | relative viability (NCI-H1975; first compound 2.53 µM): 0.386 | relative viability (NCI-H1975; first compound 8 µM): 0.418 | relative viability (LK-2; first compound 0.08 µM): 0.582 | relative viability (LK-2; first compound 0.253 µM): 0.551 | relative viability (LK-2; first compound 0.8 µM): 0.524 | relative viability (LK-2; first compound 2.53 µM): 0.29 | relative viability (LK-2; first compound 8 µM): 0.381 | relative viability (SK-LU-1; first compound 0.08 µM): 0.545 | relative viability (SK-LU-1; first compound 0.253 µM): 0.551 | relative viability (SK-LU-1; first compound 0.8 µM): 0.737 | relative viability (SK-LU-1; first compound 2.53 µM): 0.459 | relative viability (SK-LU-1; first compound 8 µM): 0.527 | relative viability (EKVX; first compound 0.08 µM): 0.191 | relative viability (EKVX; first compound 0.253 µM): 0.237 | relative viability (EKVX; first compound 0.8 µM): 0.218 | relative viability (EKVX; first compound 2.53 µM): 0.209 | relative viability (EKVX; first compound 8 µM): 0.265 | relative viability (NCI-H322M; first compound 0.08 µM): 0.738 | relative viability (NCI-H322M; first compound 0.253 µM): 0.764 | relative viability (NCI-H322M; first compound 0.8 µM): 0.742 | relative viability (NCI-H322M; first compound 2.53 µM): 0.632 | relative viability (NCI-H322M; first compound 8 µM): 0.688 | relative viability (NCI-H2126; first compound 0.08 µM): 0.53 | relative viability (NCI-H2126; first compound 0.253 µM): 0.584 | relative viability (NCI-H2126; first compound 0.8 µM): 0.482 | relative viability (NCI-H2126; first compound 2.53 µM): 0.517 | relative viability (NCI-H2126; first compound 8 µM): 0.521 | relative viability (NCI-H2405; first compound 0.08 µM): 0.354 | relative viability (NCI-H2405; first compound 0.253 µM): 0.372 | relative viability (NCI-H2405; first compound 0.8 µM): 0.45 | relative viability (NCI-H2405; first compound 2.53 µM): 0.385 | relative viability (NCI-H2405; first compound 8 µM): 0.415
